Measured values published in PubChem BioAssay (NCI).
Where “and” joins values, the source holds several entries; their conditions need not be identical. Equal values may be shown once.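 Five compound concentrations were applied to cells in 96-well plates for 48 hours; endpoints were derived by simple linear interpolation of the resulting dose-response curve. At the GI50, growth is halved. Definition used: TGI = concentration required for complete inhibition of growth.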

How the values were obtained:
Test in all cases: NCI-60 cell line screen, 48 h
A549 NSCLC = test system: A549 NSCLC
CCRF-CEM leukemia = test system: CCRF-CEM leukemia
HCT-15 colon = test system: HCT-15 colon
HL-60(TB) leukemia = test system: HL-60(TB) leukemia
HOP-92 NSCLC = test system: HOP-92 NSCLC
K-562 leukemia = test system: K-562 leukemia
KM12 colon = test system: KM12 colon
MCF7 breast = test system: MCF7 breast
NCI/ADR-RES ovarian = test system: NCI/ADR-RES ovarian
OVCAR-4 ovarian = test system: OVCAR-4 ovarian

SMILES | GI50 (A549 NSCLC) | TGI (A549 NSCLC) | GI50 (CCRF-CEM leukemia) | TGI (CCRF-CEM leukemia) | GI50 (HCT-15 colon) | TGI (HCT-15 colon) | GI50 (HL-60(TB) leukemia) | TGI (HL-60(TB) leukemia) | GI50 (HOP-92 NSCLC) [µM] | TGI (HOP-92 NSCLC) [µM] | GI50 (K-562 leukemia) | TGI (K-562 leukemia) | GI50 (KM12 colon) | TGI (KM12 colon) | GI50 (MCF7 breast) | TGI (MCF7 breast) | GI50 (NCI/ADR-RES ovarian) | TGI (NCI/ADR-RES ovarian) | GI50 (OVCAR-4 ovarian) | TGI (OVCAR-4 ovarian)
CC(C)C[C@H](NC(=O)CCn1ccc2ncccc2c1=O)B(O)O | 36.1 µM | > 100 µM | 0.308 µM | > 26.5 µM | 28.1 µM | > 100 µM | 6.88 µM | > 100 µM | 14.5 | 60.3 | 13.2 µM | > 100 µM | 14.6 µM | 37.7 µM | 3.88 µM | > 100 µM | > 100 µM | > 100 µM | 24.9 µM | > 100 µM
FC(F)(F)c1cccc2c(SCCc3n[nH]c(=S)o3)ccnc12 | 51.6 µM | > 100 µM | 38.6 µM | > 100 µM | 66.2 µM | > 100 µM | 67.8 µM | > 100 µM | 28.4 | 81.6 | 47.4 µM | > 100 µM | 52.7 µM | > 100 µM | 41.6 µM | > 100 µM | 38 µM | > 100 µM | 32.5 µM | > 100 µM
Cc1cnccc1N=Nc1ccc(N(C)C)cc1 |  | > 100 µM |  | > 100 µM |  | > 100 µM |  | > 100 µM |  | 36.1 |  | 76.7 µM |  | > 100 µM |  | 35 µM |  | 46.4 µM |  | 61.2 µM
CN1C[C@@H]2Cn3c(c(C4=C(c5cn(C)c6ccccc56)C(=O)NC4=O)c4ccccc43)C[C@H]2C1 | 4.4 µM and 3.51 µM | 10.5 µM and 8.75 µM | 2.13 µM and 5.69 µM | 11.7 µM and 17.6 µM | 4.41 µM and 3.58 µM | 13.1 µM and 10.9 µM | 5.48 µM and 3.63 µM | 10.5 µM and 8.53 µM | 6.76 | 12.7 | 4.9 µM and 2.37 µM | 10.4 µM and 6.88 µM | 4.49 µM and 3.67 µM | 9.19 µM and 7.87 µM | 3.6 µM and 3.15 µM | 8.7 µM and 9.66 µM | 6.46 µM and 8.53 µM | 16.8 µM and 25 µM | 3.36 µM and 3.48 µM | 9.12 µM and 8.91 µM
COc1cccc(CCC(=O)c2cc3c(N)c(C(=O)Nc4cccc(Cl)c4C)sc3nc2C)c1 | 0.687 µM | > 100 µM | 0.437 µM | > 100 µM | 0.433 µM | > 100 µM | 0.543 µM | > 100 µM | 0.753 | > 100 | 0.396 µM | > 100 µM | 0.502 µM | > 100 µM | 0.336 µM | > 100 µM | 0.388 µM | 10.4 µM | 1.56 µM | > 100 µM
COC(=O)[C@H](C)NC(=O)[C@@H](OC)[C@@H]1Cc2cc3cc(OC4CC(OC5CC(O)C(O)C(C)O5)C(O)C(C)O4)c(C)c(O)c3c(O)c2C(=O)[C@H]1OC1CC(OC2CC(OC3CC(C)(O)C(O)C(C)O3)C(O)C(C)O2)C(O)C(C)O1 (stereo not given in full) | 0.195 µM | > 50 µM | 0.147 µM | > 50 µM | 0.41 µM | > 50 µM | 0.894 µM | 10.6 µM | 0.115 | 7.1 | 0.179 µM | > 50 µM | 0.0944 µM | > 50 µM | 0.0236 µM | > 50 µM | 12.3 µM | > 50 µM | 0.163 µM | 3.43 µM
O=C(CCSc1ccnc2c(C(F)(F)F)cccc12)N/N=C/c1cc(Cl)c(Cl)cc1Cl | 24.8 µM | 53.5 µM | 25.4 µM | 62.1 µM | 20 µM | 36.5 µM | 32.2 µM | 58 µM | 16.3 | 34.3 | 39.6 µM | > 100 µM | 29.7 µM | 77.9 µM | 22.9 µM | 44 µM | 23 µM | 49.7 µM | 25.4 µM | 64.2 µM
CCNNC(=O)[C@@H]1[C@H](c2cc(OC)c(OC)c(OC)c2)c2cc3c(cc2[C@H](O)[C@H]1CO)OCO3 | 0.376 µM | > 100 µM | 0.316 µM | > 100 µM | 0.398 µM | > 100 µM | 0.277 µM | 0.707 µM | 0.433 | > 100 | 0.349 µM | > 100 µM | 0.387 µM | > 100 µM | 0.36 µM | > 100 µM | 0.509 µM | 17.7 µM | 2.37 µM | > 100 µM
CCOC(=O)C(C(=O)OCC)C(=O)c1ccccc1C(=O)c1ccccc1 |  | > 100 µM |  | > 100 µM |  | > 100 µM |  | > 100 µM |  | > 100 |  | > 100 µM |  | > 100 µM |  | > 100 µM |  | > 100 µM |  | > 100 µM
CN(CC(=O)O)Cc1oc(CO)cc(=O)c1O |  | > 100 µM |  | > 100 µM |  | > 100 µM |  | 76.5 µM |  | > 100 |  | > 100 µM |  | > 100 µM |  | > 100 µM |  | > 100 µM |  | > 100 µM
Nc1ccc(C(OC(=O)c2cc3ccccc3c(Cc3c(O)c(C(=O)OC(c4ccc(N)cc4)(c4ccc(N)cc4)c4ccc(N)cc4)cc4ccccc34)c2O)(c2ccc(N)cc2)c2ccc(N)cc2)cc1 | 0.774 µM | 21.7 µM | 3.03 µM | > 100 µM | 4.01 µM | > 100 µM | 4.04 µM | 23.3 µM | 1.15 | 5.86 | 0.682 µM | > 100 µM | 0.608 µM | 12.7 µM | 0.623 µM | 12.4 µM | 15.5 µM | > 100 µM | 2.03 µM | 56.6 µM
O=c1oc2c3ccc4cnccc4c3[nH]c2c2ccccc12 | 3.96 µM | > 100 µM | 3.94 µM | 11.6 µM | 30.7 µM | > 100 µM | 17.3 µM | > 100 µM | 10.2 | 35 | 27.7 µM | > 100 µM | 13.1 µM | > 100 µM | 2.24 µM | 6.17 µM | 66.4 µM | > 100 µM | 15.5 µM | 31 µM
COc1cc(C2CC(=O)Nc3c2ccc2ccccc32)cc(Br)c1OC (stereo not given) | 0.549 µM | > 49.7 µM | 0.292 µM | 1.41 µM | 0.445 µM | > 90.5 µM | 0.212 µM | 0.462 µM | 0.176 | 2.42 | 0.349 µM | > 75.7 µM | 0.532 µM | > 41.2 µM | 0.343 µM | > 40.6 µM | 0.279 µM | 1.13 µM | 3.64 µM | > 100 µM
